Measurements taken from patent publication US10689331B2, “IDO inhibitors” (Bristol-Myers Squibb Company, priority 2015, dated 2020).
pIC50: −log10 of the molar value.

Biological target: T1, human IDO1 (Homo sapiens, UniProt P14902)
T1 construct: expressed in transfected cells
Assay: HEK Human IDO-1 inhibition assay (kynurenine readout, Ehrlich reagent, absorbance 490 nm)
Format: cell-based
Conditions: human IDO1/HEK293 cells, incubated 20 hours with compound; 500 nM reference standard = 100% inhibition
Protocol: HEK293 cells were transfected with a pCDNA-based mammalian expression vector harboring human IDO1 cDNA (NM 002164.2) by electroporation. They were cultured in medium (DMEM with 10% FBS) containing 1 mg/ml G418 for two weeks. Clones of HEK293 cells that stably expressed human IDO1 protein were selected and expanded for IDO inhibition assay.
The human IDO1/HEK293 cells were seeded at 10,000 cells per 50 uL per well with RPMI/phenol red free media contains 10% FBS in a 384-well black wall clear bottom tissue culture plate (Matrix Technologies LLC) 100 nL of certain concentration of compound was then added to each well using ECHO liquid handling systems. The cells were incubated for 20 hours in 37° C. incubator with 5% CO2.
The compound treatments were stopped by adding Trichloroacetic Acid (Sigma-Aldrich) to a final concentration at 0.2%. The cell plate was further incubated at 50° C. for 30 minute. The equal volume supernatant (20 uL) and 0.2% (w/v) Ehrlich reagent (4-dimethylaminobenzaldehyde, Sigma-Aldrich) in glacial acetic acid were mixed in a new clear bottom 384-well plate. This plate was then incubated at room temperature for 30 minute. The absorbance at 490 nm was measured on Envision plate reader. Compound IC50 values were calculated using the counts of 500 nM of a reference standard treatment as one hundred percent inhibition, and counts of no compound but DMSO treatment as zero percent inhibition.

T1 sequence (P14902 whole entry): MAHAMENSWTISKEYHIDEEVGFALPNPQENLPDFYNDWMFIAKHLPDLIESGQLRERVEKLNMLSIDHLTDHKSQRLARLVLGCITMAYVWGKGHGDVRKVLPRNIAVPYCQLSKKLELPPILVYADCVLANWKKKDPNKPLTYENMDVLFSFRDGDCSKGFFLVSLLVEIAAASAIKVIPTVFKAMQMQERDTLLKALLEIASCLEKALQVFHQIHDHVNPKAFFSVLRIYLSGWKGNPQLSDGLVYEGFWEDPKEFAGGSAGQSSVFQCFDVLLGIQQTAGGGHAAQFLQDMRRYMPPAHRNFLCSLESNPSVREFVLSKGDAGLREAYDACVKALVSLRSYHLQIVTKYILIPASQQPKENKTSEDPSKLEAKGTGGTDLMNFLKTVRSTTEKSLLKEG

pIC50	SMILES
≤ 7.00	CC(C)CN(c1ccc(OCC(N)=O)cc1NC(=O)Nc1ccc(Cl)cc1F)C1CCCCC1 [Example 153, 2-(3-(3-(4-chloro-2-fluorophenyl)ureido)-4-(cyclohexyl(isobutyl)amino)phenoxy)acetamide]
≤ 7.00	CC(C)CN(Cc1ccc(Cl)cc1)c1ccc(OCC(=O)O)cc1NC(=O)Cc1ccc(Cl)cc1F [Example 167, 2-(3-(2-(4-chloro-2-fluorophenyl)acetamido)-4-((4-chlorobenzyl)(isobutyl)amino)phenoxy)acetic acid]
> 7.00	CCCC(Oc1ccc(N(CC(C)C)C2CCCCC2)c(NC(=O)Nc2ccc(C)cc2)c1)C(=O)O (single isomer, unassigned) [Example 86-1, 2-(4-(cyclohexyl(isobutyl)amino)-3-(3-(p-tolyl)ureido)phenoxy)pentanoic acid]
≤ 7.00	COCCN(c1ccc(OCC(=O)O)cc1NC(=O)Nc1ccc(F)cc1F)C1CCCCC1 [Example 117, 2-(4-(cyclohexyl(2-methoxyethyl)amino)-3-(3-(2,4-difluorophenyl)ureido)phenoxy)acetic acid]
≤ 7.00	CC(C)CN(c1ccc(OCC(=O)O)cc1NC(=O)Nc1ccc(Cl)cc1F)C1CCOC1 (stereo not drawn) [Example 144, 2-(3-(3-(4-chloro-2-fluorophenyl)ureido)-4-(isobutyl(tetrahydrofuran-3-yl)amino)phenoxy)acetic acid]
> 7.00	CCCN(Cc1ccc(Cl)cc1)c1ccc(OCC(=O)O)cc1NC(=O)Nc1ccc(Cl)cc1F [Example 164, 2-(3-(3-(4-chloro-2-fluorophenyl)ureido)-4-((4-chlorobenzyl)(propyl)amino)phenoxy)acetic acid]
> 8.30	CC(C)CN(c1cc(F)c(OCC(=O)O)cc1NC(=O)Nc1ccc(Br)cc1F)C1CCCCC1 [Example 125, 2-(5-(3-(4-bromo-2-fluorophenyl)ureido)-4-(cyclohexyl(isobutyl)amino)-2-fluorophenoxy)acetic acid]
> 8.30	CC(C)CN(c1ccc(OCC(=O)O)cc1NC(=O)Nc1ccc(Cl)cc1F)C1CCC(F)(F)CC1 [Example 98, 2-(3-(3-(4-Chloro-2-fluorophenyl)ureido)-4-((4,4-difluorocyclohexyl)(isobutyl)amino)-phenoxy)acetic acid]
> 8.30	CC(C)CN(c1ccc(OCc2nnn[nH]2)cc1NC(=O)Nc1ccccc1F)C1CCCCC1 [Example 97, 1-(5-((1H-tetrazol-5-yl)methoxy)-2-(cyclohexyl(isobutyl)amino)phenyl)-3-(2-fluorophenyl)urea]
> 8.30	CC(C)CN(c1cc(F)c(OCC(=O)O)cc1NC(=O)Nc1cc(F)ccc1F)C1CCCCC1 [Example 126, 2-(4-(cyclohexyl(isobutyl)amino)-5-(3-(2,5-difluorophenyl)ureido)-2-fluorophenoxy)acetic acid]
> 7.00	CC(C)CN(c1ccc(OCC(=O)O)cc1NC(=O)Cc1ccc(Cl)cc1F)C1CCCCC1 [Example 110, 2-(3-(2-(4-chloro-2-fluorophenyl)acetamido)-4-(cyclohexyl(isobutyl)amino)phenoxy)acetic acid]
> 8.30	CCCC(Oc1ccc(N(CC(C)C)C2CCCCC2)c(NC(=O)Nc2ccccc2F)c1)C(=O)O (single isomer, unassigned) [Example 87-2, 2-(4-(cyclohexyl(isobutyl)amino)-3-(3-(2-fluorophenyl)ureido)phenoxy)pentanoic acid]
> 8.30	CC(C)CN(c1cc(F)c(OC(C)C(=O)O)cc1NC(=O)Nc1ccc(Cl)cc1F)C1CCCCC1 (racemic) [racemic 136]
> 8.30	CC(C)CN(c1ccc(OCC(=O)O)cc1NC(=O)Nc1ccc(Br)cc1F)C1CCC(F)(F)CC1 [Example 99, 2-(3-(3-(4-Bromo-2-fluorophenyl)ureido)-4-((4,4-difluorocyclohexyl)(isobutyl)amino)-phenoxy)acetic acid]
> 7.00	CC(C)CN(Cc1ccc(Cl)cc1)c1ccc(OCC(=O)O)cc1NC(=O)Nc1ccc(Cl)cc1F [Example 163, 2-(3-(3-(4-chloro-2-fluorophenyl)ureido)-4-((4-chlorobenzyl)(isobutyl)amino)phenoxy)acetic acid]
≤ 7.00	CC(C)CN(c1ccc(OCC(=O)O)cc1NC(=O)Nc1ccc(Cl)cc1F)C1CCC(O)CC1 (stereo not drawn) [Example 150, 2-(3-(3-(4-chloro-2-fluorophenyl)ureido)-4-((( )-4 hydroxycyclohexyl)(isobutyl)amino)phenoxy)acetic acid]
> 7.00	CC(C)CN(c1ccc(OC(C)C(=O)O)cc1NC(=O)Nc1ccc(Cl)cc1F)C1CCOC1 (stereo not drawn) [Example 145, 2-(3-(3-(4-chloro-2-fluorophenyl)ureido)-4-(isobutyl(tetrahydrofuran-3-yl)amino)phenoxy)propanoic acid]
≤ 7.00	Cc1cc(NC(=O)Nc2cc(OCC(=O)O)c(F)cc2N(CC(C)C)C2CCCCC2)on1 [Example 114, 2-(4-(cyclohexyl(isobutyl)amino)-2-fluoro-5-(3-(3-methylisoxazol-5-yl)ureido)phenoxy)acetic acid]
> 8.30	CCC(Oc1ccc(N(CC(C)C)C2CCCCC2)c(NC(=O)Nc2ccc(Cl)cc2F)c1)C(=O)O (single isomer, unassigned) [Example 80-1, 2-(3-(3-(4-chloro-2-fluorophenyl)ureido)-4-(cyclohexyl(isobutyl)amino)phenoxy)butanoic acid]

Further lines, the molecule ahead of its results:

SMILES	pIC50
COc1ccc(NC(=O)Nc2cc(OC(C)C(=O)O)ccc2N(CC(C)C)C2CCCCC2)c(F)c1 (single isomer, unassigned) [Example 64-2, 2-(4-(cyclohexyl(isobutyl)amino)-3-(3-(2-fluoro-4-methoxyphenyl)ureido)phenoxy)propanoic acid]	> 8.30
CC(C)CN(c1ccc(OC(C)C(=O)O)cc1NC(=O)Nc1ccc(Cl)cc1F)C1CCCCC1 (single isomer, unassigned) [Example 61-1, 2-(3-(3-(4-chloro-2-fluorophenyl)ureido)-4-(cyclo-hexyl(isobutyl)amino)phenoxy)propanoic acid]	> 8.30
CC(C)CN(c1ccc(OCC(=O)O)cc1NC(=O)Nc1cc(F)cc(F)c1)C1CCCCC1 [Example 32, 2-(4-(cyclohexyl(isobutyl)amino)-3-(3-(3,5-difluorophenyl)ureido)phenoxy)acetic acid]	≤ 7.00
CC(C)CN(c1ccc(OCC(=O)O)cc1NC(=O)Cc1ccc(F)cc1F)C1CCCCC1 [Example 56, 2-(4-(cyclohexyl(isobutyl)amino)-3-(2-(2,4-difluorophenyl)acetamido)phenoxy)acetic acid]	≤ 7.00
CC(C)CN(c1ccc(OCC(=O)O)cc1NC(=O)Nc1ccc(N(C)C)cc1)C1CCCCC1 [Example 9, 2-(4-(cyclohexyl(isobutyl)amino)-3-(3-(4-(dimethylamino)phenyl)ureido)phenoxy)acetic acid]	≤ 7.00
Cc1cc(NC(=O)Nc2cc(OC(C)C(=O)NS(=O)(=O)C3CC3)ccc2N(CC(C)C)C2CCCCC2)on1 (racemic) [Example 68]	> 8.30
Cc1nnc(NC(=O)Nc2cc(OCC(=O)O)ccc2N(CC(C)C)C2CCCCC2)s1 [Example 11, 2-(4-(cyclohexyl(isobutyl)amino)-3-(3-(5-methyl-1,3,4-thiadiazol-2-yl)ureido)phenoxy)acetic acid]	≤ 7.00
CC(C)CN(c1ccc(OCC(=O)O)cc1NC(=O)Nc1ccc(Cl)c(F)c1)C1CCCCC1 [Example 36, 2-(3-(3-(4-chloro-3-fluorophenyl)ureido)-4-(cyclohexyl(isobutyl)amino)phenoxy)acetic acid]	> 7.00
Cc1ccc(CC(=O)Nc2cc(OCC(=O)O)ccc2N(CC(C)C)C2CCCCC2)c(F)c1 [Example 55, 2-(4-(cyclohexyl(isobutyl)amino)-3-(2-(2-fluoro-4-methylphenyl)acetamido)phenoxy)acetic acid]	> 7.00
CC(C)CN(c1ccc(OCC(=O)NS(=O)(=O)N(C)C)cc1NC(=O)Nc1ccc(Cl)cc1F)C1CCCCC1 [Example 46, 2-(3-(3-(4-chloro-2-fluorophenyl)ureido)-4-(cyclohexyl(isobutyl)amino)phenoxy)-N—(N,N-dimethylsulfamoyl)acetamide]	> 8.30
COc1cc(F)c(NC(=O)Nc2cc(OCC(=O)O)ccc2N(CC(C)C)C2CCCCC2)cc1F [Example 29, 2-(4-(cyclohexyl(isobutyl)amino)-3-(3-(2,5-difluoro-4-methoxy-phenyl)ureido)phenoxy)acetic acid]	> 7.00
CC(C)CN(c1ccc(OCC(=O)O)cc1Nc1nc2ccccc2o1)C1CCCCC1 [Example 44, 2-(3-(benzo[d]oxazol-2-ylamino)-4-(cyclohexyl(isobutyl)amino)phenoxy)acetic acid]	≤ 7.00
Cc1ccc(NC(=O)Nc2cc(OCC(=O)NS(=O)(=O)C3CC3)ccc2N(CC(C)C)C2CCCCC2)cc1 [Example 53, 2-(4-(cyclohexyl(isobutyl)amino)-3-(3-(p-tolyl)ureido)phenoxy)-N-(cyclopropylsulfonyl)acetamide]	> 7.00
CC(C)CN(c1ccc(OCC(=O)O)cc1NC(=O)Nc1c(F)cccc1F)C1CCCCC1 [Example 19, 2-(4-(cyclohexyl(isobutyl)amino)-3-(3-(2,6-difluorophenyl)ureido)phenoxy)acetic acid]	≤ 7.00
